US5770587A, “Antifungal agents” (Merck & Co., Inc., priority 1996, dated 1998)

Experiments:
Assay type in all cases: cell-based
[1] = tested on: Candida albicans (CA2); assay: broth microdilution assay (MIC/MFC)
Method: (§1) In the microbroth dilution assay, microorganisms were selected by streaking a yeast culture on Sabouraud dextrose agar (SDA) incubating for 24-48 hours at 35°-37° C., thereafter selected 3 to 5 characteristic colonies and transferring to a fresh plate and incubating under similar conditions. From the regrowth, 3 to 5 colonies were selected and suspended in 10 milliliters of YM broth (Difco) and incubated for 4 hours at 35°-37° C. shaking at 225 rpm. The 4 hour broth cultures were adjusted optically to 86% transmission resulting in a concentration of 1-5×10^6 cfu/ml which was further diluted 1:100 in YNBD (yeast nitrogen base with 1 % dextrose) to obtain a concentration of 1-5×10^4 cfu/ml for use as inocula.
(§2) The test compounds, Compounds I and II, were dissolved at 512 μg/ml in 10% DMSO and diluted 2× into the first well to achieve a concentration of 256 μg/ml at 5% DMSO in the first well. Compounds are subsequently serially diluted 2× and cell suspension is added to each well resulting in an additional 2× dilution of compound. 75 μl of said solution is delivered to each well in column 1 of a 96-well, U-bottomed microtiter plate. The compounds in column 1 were then serially diluted two-fold to yield concentrations from 128 μg/ml to 0.06 μg/ml.
(§3) The plates containing the diluted compounds were then inoculated with 75 μl/well of the appropriate microorganism and incubated for 48 hours at 35°-37° C. with MIC (minimum inhibitory concentration) determinations carried out after 24 hours of incubation (except Cryptococcus strains which are read at 48 hours). Growth and sterility controls for each organism and sterility checks for the compounds also were carried out.
(§4) After recording MICs at 24 hours, the microtiter plates were shaken gently to resuspend the cells. A 1.5 μl sample was transferred from each well of the 96-well microtiter plate to a single reservoir inoculum plate containing SDA. The inoculated SDA and corresponding microtiter plates were incubated for 24 hours at 35°-37° C. For Cryptococcus neoformans, SDA plates were inoculated at 48 hours after recording MICs and incubated 48 hours before reading the MFC. MFC is the lowest concentration of compound at which either no growth or growth of ≤4 colonies occur.

[2] = tested on: Candida albicans (CLY539); assay: broth microdilution assay (MIC/MFC)
Method: as §1, §2, §3, §4

[3] = tested on: Candida albicans (MY1055); assay: broth microdilution assay (MIC/MFC)
Method: as §1, §2, §3, §4

[4] = tested on: Candida glabrata (MY1381); assay: broth microdilution assay (MIC/MFC)
Method: as §1, §2, §3, §4

[5] = tested on: Candida guillermondii (MY1019); assay: broth microdilution assay (MIC/MFC)
Method: as §1, §2, §3, §4

[6] = tested on: Candida parapsilosis (MY1010); assay: broth microdilution assay (MIC/MFC); conditions: 24 h, 35-37° C.
Method: as §1, §2, §3, §4

[7] = tested on: Candida pseudotropicalis (MY2099); assay: broth microdilution assay (MIC/MFC)
Method: as §1, §2, §3, §4

[8] = tested on: Candida tropicalis (MY1012); assay: broth microdilution assay (MIC/MFC)
Method: as §1, §2, §3, §4

[9] = tested on: Candida tropicalis (MY1124); assay: broth microdilution assay (MIC/MFC)
Method: as §1, §2, §3, §4

[10] = tested on: Cryptococcus neoformans (MY2061); assay: broth microdilution assay (MIC/MFC)
Method: as §1, §2, §3, §4

[11] = tested on: Cryptococcus neoformans (MY2062); assay: broth microdilution assay (MIC/MFC)
Method: as §1, §2, §3, §4

[12] = tested on: Saccharomyces cerevisiae (MY2140); assay: broth microdilution assay (MIC/MFC)
Method: as §1, §2, §3, §4

[13] = tested on: Saccharomyces cerevisiae (MY2141); assay: broth microdilution assay (MIC/MFC)
Method: as §1, §2, §3, §4

[14] = tested on: Aspergillus fumigatus (MY4839); assay: broth microdilution assay (MIC)
Method: as §1, with “inocula. […]” for “inocula.”
as §3, with “Growth and sterility controls for each organism and sterility checks for the compounds also were carried out.” left out
(§5) After recording MICs at 24 hours, the microtiter plates were shaken gently to resuspend the cells. […] For Cryptococcus neoformans, SDA plates were inoculated at 48 hours after recording MICs and incubated 48 hours before reading the MFC. […]

[15] = tested on: Aspergillus fumigatus (MY5668); assay: broth microdilution assay (MIC)
Method: as §1, with “inocula. […]” for “inocula.”
as §3, with “Growth and sterility controls for each organism and sterility checks for the compounds also were carried out.” left out
as §5

[16] = tested on: panel of fungi; assay: broth microdilution assay against a panel of fungi, comparison with amphotericin B; conditions: MIC and MFC against a panel of fungi
Method: as §1, with “inocula. […]” for “inocula.”
as §3, with “Growth and sterility controls for each organism and sterility checks for the compounds also were carried out.” left out
as §5

[17] = tested on: Aspergillus flavus, Fusarium oxysporum, Ustilago zeae and the like; assay: agar plate inhibition zone test, filamentous fungi; conditions: agar plates, 28° C. or 37° C., 24 hours, inhibition zones
[18] = SDA incubated 48 h, no growth or ≤4 colonies

**Q.** Which results are given for `CC(C)C1CCC2C1(C)CCC1(C)C3=CCC4C(C)(C(=O)O)C(O)C(O)C(O)C4(C(=O)O)C3CCC21C` (centres unmarked) [Compound II]?
**A.** Minimum Inhibitory Concentration (MIC) ([1]; 24 h, 35-37° C.): 8 µg/mL; Minimum Fungicidal Concentration (MFC) ([1]; no growth or ≤4 colonies): 8 µg/mL; Minimum Inhibitory Concentration (MIC) ([2]; 24 h, 35-37° C.): 8 µg/mL; Minimum Fungicidal Concentration (MFC) ([2]; no growth or ≤4 colonies): 8 µg/mL; Minimum Inhibitory Concentration (MIC) ([3]; 24 h, 35-37° C.): 8 µg/mL; Minimum Fungicidal Concentration (MFC) ([3]; no growth or ≤4 colonies): 8 µg/mL; Minimum Inhibitory Concentration (MIC) ([4]; 24 h, 35-37° C.): 8 µg/mL; Minimum Fungicidal Concentration (MFC) ([4]; no growth or ≤4 colonies): 8 µg/mL; Minimum Inhibitory Concentration (MIC) ([5]; 24 h, 35-37° C.): > 128 µg/mL; Minimum Fungicidal Concentration (MFC) ([5]; no growth or ≤4 colonies): > 128 µg/mL; Minimum Inhibitory Concentration (MIC) [6]: 32 µg/mL; Minimum Inhibitory Concentration (MIC) ([7]; 24 h, 35-37° C.): 4 µg/mL; Minimum Fungicidal Concentration (MFC) ([7]; no growth or ≤4 colonies): 4 µg/mL; Minimum Inhibitory Concentration (MIC) ([8]; 24 h, 35-37° C.): 4 µg/mL; Minimum Fungicidal Concentration (MFC) ([8]; no growth or ≤4 colonies): 8 µg/mL; Minimum Inhibitory Concentration (MIC) ([9]; 24 h, 35-37° C.): 8 µg/mL; Minimum Fungicidal Concentration (MFC) ([9]; no growth or ≤4 colonies): 8 µg/mL; Minimum Fungicidal Concentration (MFC) [10, 18]: 4 µg/mL; Minimum Inhibitory Concentration (MIC) ([10]; read at 48 h, 35-37° C.): 4 µg/mL; Minimum Fungicidal Concentration (MFC) [11, 18]: 4 µg/mL; Minimum Inhibitory Concentration (MIC) ([11]; read at 48 h, 35-37° C.): 4 µg/mL; Minimum Inhibitory Concentration (MIC) ([12]; 24 h, 35-37° C.): 4 µg/mL; Minimum Fungicidal Concentration (MFC) ([12]; no growth or ≤4 colonies): 4 µg/mL; Minimum Inhibitory Concentration (MIC) ([13]; 24 h, 35-37° C.): 4 µg/mL; Minimum Fungicidal Concentration (MFC) ([13]; no growth or ≤4 colonies): 4 µg/mL; Minimum Inhibitory Concentration (MIC) [14]: 8 µg/mL; Minimum Inhibitory Concentration (MIC) [15]: > 128 µg/mL; effective concentrations compared with amphotericin B [16]: effective at concentrations comparable to an established antifungal agent, amphotericin B; inhibition of growth of filamentous fungi [17]: effectively inhibit growth of the fungal organisms
